Test results taken from patent publication US8314071B2, “Bioactive molecules from co-cultivation of microbes” (Massachusetts Institute of Technology, priority 2007, dated 2012).

Assays:
Bacillus subtilis = experiment: paper disk diffusion, Bacillus subtilis; assay type: cell-based; conditions: paper disk (6 mm in diameter) containing 30 μg on agar plate
Description: (§1) No evidence of activity against eukaryotes, such as S. cerevisiae or cytotoxicity against human leukemia (HL-60) was observed.
(§2) Antimicrobial activity was measured by the conventional paper disk diffusion method. See Bauer, A. W.; Kirby, W. M.; Sherris, J. C.; Turck, M. Am. J. Clin. Pathol. 1966, 45, 493-96; and Hachem, C. Y.; Clarridge, J. E.; Reddy, R.; Flamm, R.; Evans, D. G.; Tanaka, S. K.; Graham, D. Y. Diagn. Microbiol. Infect. Dis. 1996, 24, 37-41. The bioactive fractions during the purification procedures were confirmed by activity against Streptomyces padanus, while pure rhodostreptomycins were tested for activity against S. padanus, Escherichia coli, Staphylococcus aureus, Bacillus subtilis, Helicobacter pylori and Saccharomyces cerevisiae. In this method, each paper disk (Whatman AA Discs, 6 mm) containing the extract or 30 μg of the pure compounds was placed directly onto an agar plate that had been freshly inoculated with a lawn of the test organism. The activity was estimated by measuring the diameters of the inhibition zones.

Escherichia coli = experiment: paper disk diffusion, Escherichia coli; assay type: cell-based; conditions: paper disk (6 mm in diameter) containing 30 μg on agar plate
Description: as §1, §2

Staphylococcus aureus = experiment: paper disk diffusion, Staphylococcus aureus; assay type: cell-based; conditions: paper disk (6 mm in diameter) containing 30 μg on agar plate
Description: as §1, §2

Streptomyces padanus = experiment: paper disk diffusion, Streptomyces padanus; assay type: cell-based; conditions: paper disk (6 mm in diameter) containing 30 μg on agar plate
Description: as §1, §2

Saccharomyces cerevisiae = experiment: paper disk diffusion, Saccharomyces cerevisiae; assay type: cell-based; conditions: paper disk (6 mm in diameter) containing 30 μg on agar plate
Description: as §1, §2

solubility in solvents = assay type: physicochemical
Helicobacter pylori = experiment: paper disk diffusion, Helicobacter pylori; assay type: cell-based; conditions: paper disk (6 mm in diameter) containing 30 μg on agar plate
Description: as §1, §2

[1] = system: Gram-negative and Gram-positive bacteria; experiment: conventional disk assays on microbial lawns, overall; assay type: cell-based; conditions: rhodostreptomycin B (2) compared with rhodostreptomycin A (1)
Description: as §1, §2

solubility in chloroform or n-hexane (solubility in solvents)	solubility in water (solubility in solvents)	Structure (SMILES)	diameter of inhibition zone (Bacillus subtilis) [mm]	diameter of inhibition zone (Escherichia coli) [mm]	diameter of inhibition zone (Staphylococcus aureus) [mm]	diameter of inhibition zone (Streptomyces padanus) [mm]	diameter of inhibition zone (Saccharomyces cerevisiae) [mm]	diameter of inhibition zone (Helicobacter pylori) [mm]	activity relative to the other isomer [1]
not in chloroform or n-hexane	highly soluble in water	CN[C@@H]1[C@H](O[C@H]2[C@H](O[C@H]3[C@H](O)[C@@H](O)[C@H](N=C(N)N)[C@@H](O)[C@@H]3N=C(N)N)O[C@H](C)[C@@]23OC(=O)N[C@H]3O)O[C@@H](CO)[C@H](O)[C@H]1O [Rhodostreptomycin 1, Rhodostreptomycin A]	8	8	9	15	0	10	
not in chloroform or n-hexane	highly soluble in water	CN[C@@H]1[C@H](O[C@H]2[C@H](O[C@H]3[C@H](O)[C@@H](O)[C@H](N=C(N)N)[C@@H](O)[C@@H]3N=C(N)N)O[C@H](C)[C@@]23OC(=O)N[C@@H]3O)O[C@@H](CO)[C@H](O)[C@H]1O [Rhodostreptomycin 2, Rhodostreptomycin B]	14	12	14	18	0	18	more potent
